Consider 4 molecules from PMC7026418, “The kinase polypharmacology landscape of clinical PARP inhibitors” (Scientific Reports, 2020).

Like-named read-outs stand apart in the source and are kept apart here.

Some targets named below: AKT2 (Homo sapiens, UniProt P31751); FGFR3(G697C) (Homo sapiens, UniProt P22607, G697C); EGFR(T790M) (Homo sapiens, UniProt P00533, T790M).
Common to all, as to test: biochemical
Set-up in all cases: DiscoveRx KINOMEscan active site-directed competition binding; percent of control kinase bound to immobilised ligand

A further assay concerns the target T1, MKK7 (Homo sapiens, UniProt O14733).
T1 construct: gene MAP2K7
T1 sequence (O14733 1-419): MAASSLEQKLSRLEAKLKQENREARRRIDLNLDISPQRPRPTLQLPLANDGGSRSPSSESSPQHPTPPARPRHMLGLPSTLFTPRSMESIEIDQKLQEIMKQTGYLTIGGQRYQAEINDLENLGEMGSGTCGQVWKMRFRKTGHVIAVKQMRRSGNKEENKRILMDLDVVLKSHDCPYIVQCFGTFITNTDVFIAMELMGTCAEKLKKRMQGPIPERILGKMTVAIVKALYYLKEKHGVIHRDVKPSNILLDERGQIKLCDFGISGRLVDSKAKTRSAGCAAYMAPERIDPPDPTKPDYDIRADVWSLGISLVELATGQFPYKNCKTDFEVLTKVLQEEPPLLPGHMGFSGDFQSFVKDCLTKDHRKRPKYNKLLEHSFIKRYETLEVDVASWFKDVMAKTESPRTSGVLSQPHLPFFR

For a further assay, the target named is T2, NEK3 (Homo sapiens, UniProt P51956).
T2 sequence (P51956 1-506): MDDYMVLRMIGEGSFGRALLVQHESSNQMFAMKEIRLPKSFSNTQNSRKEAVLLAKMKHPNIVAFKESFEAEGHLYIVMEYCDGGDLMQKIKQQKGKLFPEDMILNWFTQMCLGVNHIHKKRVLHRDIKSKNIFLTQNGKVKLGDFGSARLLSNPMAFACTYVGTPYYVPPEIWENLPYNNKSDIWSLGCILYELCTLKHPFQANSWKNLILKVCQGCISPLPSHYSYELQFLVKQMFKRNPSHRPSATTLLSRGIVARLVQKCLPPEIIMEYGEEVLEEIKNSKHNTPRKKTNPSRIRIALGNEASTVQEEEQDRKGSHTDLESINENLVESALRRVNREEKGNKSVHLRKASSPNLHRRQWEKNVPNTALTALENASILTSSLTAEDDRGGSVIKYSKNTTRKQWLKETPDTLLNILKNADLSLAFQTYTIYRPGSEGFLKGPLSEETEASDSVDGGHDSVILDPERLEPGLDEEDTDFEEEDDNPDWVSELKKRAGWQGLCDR

The target in a further assay is T3, TAOK1 (Homo sapiens, UniProt Q7L7X3).
T3 sequence (Q7L7X3 1-1001): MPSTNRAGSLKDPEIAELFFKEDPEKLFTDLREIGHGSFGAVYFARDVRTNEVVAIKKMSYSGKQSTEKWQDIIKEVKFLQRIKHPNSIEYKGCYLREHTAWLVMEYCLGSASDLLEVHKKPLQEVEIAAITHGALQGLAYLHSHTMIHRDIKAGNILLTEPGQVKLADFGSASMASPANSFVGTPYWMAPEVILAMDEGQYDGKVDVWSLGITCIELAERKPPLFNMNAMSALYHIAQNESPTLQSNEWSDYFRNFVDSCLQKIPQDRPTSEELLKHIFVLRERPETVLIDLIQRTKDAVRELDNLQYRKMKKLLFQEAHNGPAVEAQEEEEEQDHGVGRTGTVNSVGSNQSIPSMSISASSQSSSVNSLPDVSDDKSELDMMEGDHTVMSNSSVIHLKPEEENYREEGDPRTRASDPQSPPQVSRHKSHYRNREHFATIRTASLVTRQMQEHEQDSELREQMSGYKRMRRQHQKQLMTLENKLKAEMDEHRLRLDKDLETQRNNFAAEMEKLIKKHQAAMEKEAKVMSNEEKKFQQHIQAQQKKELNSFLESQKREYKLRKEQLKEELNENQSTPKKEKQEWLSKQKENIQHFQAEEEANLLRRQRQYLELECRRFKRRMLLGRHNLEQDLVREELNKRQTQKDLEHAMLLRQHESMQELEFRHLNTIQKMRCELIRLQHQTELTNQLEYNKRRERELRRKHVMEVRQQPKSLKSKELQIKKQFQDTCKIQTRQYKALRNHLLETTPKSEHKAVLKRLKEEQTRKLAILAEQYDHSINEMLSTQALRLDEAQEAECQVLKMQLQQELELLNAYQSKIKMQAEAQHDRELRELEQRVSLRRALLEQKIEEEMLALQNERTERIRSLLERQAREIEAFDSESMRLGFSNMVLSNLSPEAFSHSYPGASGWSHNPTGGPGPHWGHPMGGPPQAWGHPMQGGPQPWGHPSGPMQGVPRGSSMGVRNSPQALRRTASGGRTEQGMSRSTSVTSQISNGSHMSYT

In assay [1] the target is T4, RSK1(Kin.Dom.2-C-terminal) (Homo sapiens, UniProt Q15418).
T4 construct: gene RPS6KA1; Kin.Dom.2-C-terminal

[2] abbreviates: read-out: Rucaparib / %Ctrl @ 10000nM, binding competition, % of control.
[3] abbreviates: read-out: Talazoparib (BMN 673) / %Ctrl @ 10000nM.
The mark [4] stands for this setting: read-out: Niraparib (MK-4827) / %Ctrl @ 10000nM.
Setting [5] is: read-out: Olaparib / %Ctrl @ 10000nM.

Sequence of EGFR(T790M) (P00533 whole entry T790M): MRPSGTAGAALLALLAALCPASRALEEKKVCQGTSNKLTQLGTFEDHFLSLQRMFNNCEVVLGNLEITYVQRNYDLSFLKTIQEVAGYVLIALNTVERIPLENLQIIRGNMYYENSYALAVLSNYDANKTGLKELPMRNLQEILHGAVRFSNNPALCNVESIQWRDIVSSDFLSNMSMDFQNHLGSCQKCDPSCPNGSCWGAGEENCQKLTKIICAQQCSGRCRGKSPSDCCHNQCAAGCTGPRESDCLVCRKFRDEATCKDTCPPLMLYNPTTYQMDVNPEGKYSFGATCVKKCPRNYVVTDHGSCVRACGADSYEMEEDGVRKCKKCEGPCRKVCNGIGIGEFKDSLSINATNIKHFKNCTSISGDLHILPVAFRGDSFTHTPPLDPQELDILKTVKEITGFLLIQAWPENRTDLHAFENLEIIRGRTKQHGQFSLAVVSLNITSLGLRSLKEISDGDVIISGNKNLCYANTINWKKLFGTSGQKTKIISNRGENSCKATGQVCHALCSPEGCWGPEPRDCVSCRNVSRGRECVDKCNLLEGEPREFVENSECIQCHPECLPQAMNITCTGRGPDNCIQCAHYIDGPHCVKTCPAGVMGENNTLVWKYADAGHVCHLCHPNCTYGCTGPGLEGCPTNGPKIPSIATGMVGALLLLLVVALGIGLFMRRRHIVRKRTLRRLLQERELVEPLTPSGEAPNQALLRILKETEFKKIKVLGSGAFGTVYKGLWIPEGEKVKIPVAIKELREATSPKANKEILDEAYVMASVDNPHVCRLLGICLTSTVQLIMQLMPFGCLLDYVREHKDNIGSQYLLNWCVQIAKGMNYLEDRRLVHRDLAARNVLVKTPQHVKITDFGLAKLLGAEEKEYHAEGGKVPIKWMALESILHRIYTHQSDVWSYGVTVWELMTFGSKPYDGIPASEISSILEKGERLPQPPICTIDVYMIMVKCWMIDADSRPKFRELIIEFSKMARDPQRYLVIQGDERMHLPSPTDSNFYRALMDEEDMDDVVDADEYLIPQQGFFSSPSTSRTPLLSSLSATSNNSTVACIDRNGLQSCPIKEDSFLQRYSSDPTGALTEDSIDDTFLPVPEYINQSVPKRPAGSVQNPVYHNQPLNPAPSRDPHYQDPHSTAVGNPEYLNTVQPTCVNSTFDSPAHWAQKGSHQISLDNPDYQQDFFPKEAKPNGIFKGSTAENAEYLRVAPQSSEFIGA
Sequence of AKT2 (P31751 whole entry): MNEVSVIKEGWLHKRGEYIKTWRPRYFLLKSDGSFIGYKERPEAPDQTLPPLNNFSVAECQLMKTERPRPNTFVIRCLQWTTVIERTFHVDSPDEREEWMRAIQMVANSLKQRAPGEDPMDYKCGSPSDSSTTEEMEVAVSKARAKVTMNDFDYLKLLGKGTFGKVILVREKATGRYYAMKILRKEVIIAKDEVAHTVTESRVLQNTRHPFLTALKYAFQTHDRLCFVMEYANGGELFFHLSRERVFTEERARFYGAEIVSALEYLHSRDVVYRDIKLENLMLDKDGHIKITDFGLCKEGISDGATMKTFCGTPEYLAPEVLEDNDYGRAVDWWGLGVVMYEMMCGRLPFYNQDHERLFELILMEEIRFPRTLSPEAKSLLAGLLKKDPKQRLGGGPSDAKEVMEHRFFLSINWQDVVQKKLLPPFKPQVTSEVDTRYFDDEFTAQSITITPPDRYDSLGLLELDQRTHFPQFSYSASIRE
Sequence of FGFR3(G697C) (P22607 whole entry G697C): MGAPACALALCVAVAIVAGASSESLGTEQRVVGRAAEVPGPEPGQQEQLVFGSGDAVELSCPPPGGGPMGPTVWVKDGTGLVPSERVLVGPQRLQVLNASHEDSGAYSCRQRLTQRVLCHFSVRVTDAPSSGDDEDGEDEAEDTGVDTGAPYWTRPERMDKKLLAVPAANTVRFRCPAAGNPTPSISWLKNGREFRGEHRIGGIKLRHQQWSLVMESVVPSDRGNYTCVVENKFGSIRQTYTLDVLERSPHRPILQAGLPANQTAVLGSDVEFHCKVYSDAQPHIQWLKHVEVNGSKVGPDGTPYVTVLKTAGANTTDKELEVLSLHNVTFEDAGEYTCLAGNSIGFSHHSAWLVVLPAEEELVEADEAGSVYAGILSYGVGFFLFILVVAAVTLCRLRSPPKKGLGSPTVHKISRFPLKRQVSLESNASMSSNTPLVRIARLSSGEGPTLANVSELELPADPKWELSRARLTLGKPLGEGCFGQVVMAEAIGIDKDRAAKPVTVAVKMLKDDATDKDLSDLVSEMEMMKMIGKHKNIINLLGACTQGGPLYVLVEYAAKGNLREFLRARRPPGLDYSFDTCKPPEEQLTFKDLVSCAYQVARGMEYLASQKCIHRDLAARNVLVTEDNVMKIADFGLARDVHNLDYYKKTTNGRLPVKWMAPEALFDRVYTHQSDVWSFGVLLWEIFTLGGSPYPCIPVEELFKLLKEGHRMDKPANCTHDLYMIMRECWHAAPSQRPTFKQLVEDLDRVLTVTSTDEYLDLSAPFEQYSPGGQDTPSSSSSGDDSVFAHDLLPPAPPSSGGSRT
T4 sequence (Q15418 whole entry): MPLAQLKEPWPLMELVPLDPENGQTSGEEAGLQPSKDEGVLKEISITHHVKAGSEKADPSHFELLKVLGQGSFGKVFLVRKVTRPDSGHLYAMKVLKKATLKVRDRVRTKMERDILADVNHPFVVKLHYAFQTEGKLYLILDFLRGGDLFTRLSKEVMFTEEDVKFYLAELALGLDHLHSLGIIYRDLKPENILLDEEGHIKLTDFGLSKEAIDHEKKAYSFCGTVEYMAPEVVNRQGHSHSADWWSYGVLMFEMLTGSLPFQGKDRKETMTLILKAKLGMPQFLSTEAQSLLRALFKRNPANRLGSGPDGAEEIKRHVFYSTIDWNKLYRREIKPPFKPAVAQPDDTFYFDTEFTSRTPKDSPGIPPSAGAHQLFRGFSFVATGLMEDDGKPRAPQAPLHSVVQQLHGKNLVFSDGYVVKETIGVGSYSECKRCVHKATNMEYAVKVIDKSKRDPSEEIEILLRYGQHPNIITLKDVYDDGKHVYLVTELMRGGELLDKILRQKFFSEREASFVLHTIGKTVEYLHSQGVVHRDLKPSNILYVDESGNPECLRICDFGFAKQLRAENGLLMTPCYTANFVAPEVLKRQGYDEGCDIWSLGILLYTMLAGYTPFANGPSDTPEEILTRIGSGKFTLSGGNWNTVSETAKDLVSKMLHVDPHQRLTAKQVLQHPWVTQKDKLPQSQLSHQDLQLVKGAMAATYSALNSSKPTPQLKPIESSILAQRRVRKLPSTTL

In the case of `CNCc1ccc(-c2[nH]c3cc(F)cc4c3c2CCNC4=O)cc1` [Rucaparib], the percent of control binding at 10 µM came to 100% on MKK7 (setting [2]); 86% at NEK3 (setting [2]); 87% at AKT2 (setting [2]); 72% at TAOK1 (setting [2]); 100% at FGFR3(G697C) (setting [2]); 70% in assay [1] (setting [2]). Besides, the percent of control binding at 10 µM on EGFR(T790M) (setting [2]) was 75%.
`Cn1ncnc1[C@H]1c2n[nH]c(=O)c3cc(F)cc(c23)N[C@@H]1c1ccc(F)cc1` [Talazoparib]: the percent of control binding at 10 µM came out at 100% on MKK7 (setting [3]); 66% at NEK3 (setting [3]); 84% on AKT2 (setting [3]); 100% at TAOK1 (setting [3]); 92% on FGFR3(G697C) (setting [3]); 100% in assay [1] (setting [3]). The percent of control binding at 10 µM on EGFR(T790M) (setting [3]) is 65%.
With `NC(=O)c1cccc2cn(-c3ccc([C@@H]4CCCNC4)cc3)nc12` [Niraparib], the percent of control binding at 10 µM on MKK7 (setting [4]) came out at 100%; on NEK3 (setting [4]), 88%; on AKT2 (setting [4]) it was 93%; at TAOK1 (setting [4]), 80%; at FGFR3(G697C) (setting [4]) it was 90%; in assay [1] (setting [4]) it was 93%. For the same molecule, the percent of control binding at 10 µM on EGFR(T790M) (setting [4]) was found to be 93%.
For `O=C(c1cc(Cc2n[nH]c(=O)c3ccccc23)ccc1F)N1CCN(C(=O)C2CC2)CC1` [Olaparib], the percent of control binding at 10 µM turned out to be 98% on MKK7 (setting [5]); 81% on NEK3 (setting [5]); 79% at AKT2 (setting [5]); 96% on TAOK1 (setting [5]); 98% on FGFR3(G697C) (setting [5]); 76% in assay [1] (setting [5]). Also, the percent of control binding at 10 µM at EGFR(T790M) (setting [5]) worked out at 84%.
